Patent publication US9187472B2 (AbbVie Inc., priority 2012, dated 2015)
pIC50: −log10 of the molar value.

test system: PC3 cells; experiment: NAMPT Cell Proliferation Assay; assay type: cell-based; conditions: Homo sapiens, PC-3, 120 h, 5 days incubation, cell viability by Cell Titer Glo
Experimental: NAMPT Cell Proliferation Assay
PC3 cells were seeded in 96-well black plates (Corning #3904) at 500 cells/well in 90 μl of RPMI media containing 10% heat-inactivated FBS and incubated overnight at 37° C. and 5% CO2 to allow cells to attach to wells. The following day, test compounds were serially diluted in neat DMSO to 1000× final concentrations prior to dilution with RPMI media to 10× and 1% DMSO. Ten μL of the 10× compounds were then transferred to wells containing cells to produce a dose response of 10-fold dilutions from 10 μM to 1×10^−5 μM. Cells were incubated for 5 days at 37° C. and 5% CO2, then cell viability was measured using Cell Titer Glo reagent (Promega #G7571). Percent inhibition values were calculated and fitted to a sigmoidal dose response curves using Assay Explorer software to determine IC50s.

Point of comparison: `CN1CCC(C(=O)N2CCC(c3ccc(C(=O)NCc4ccc5ncnn5c4)s3)CC2)CC1` [Example 851, 5-{1-[(1-methylpiperidin-4-yl)carbonyl]piperidin-4-yl}-N-([1,2,4]triazolo[1,5-a]pyridin-6-ylmethyl)thiophene-2-carboxamide], pIC50 6.88. Against it:
- O=C(NCc1cn2ccnc2cn1)c1ccc(C2CCN(C(=O)c3ccccc3F)CC2)s1 [Example 827, 5-[1-(2-fluorobenzoyl)piperidin-4-yl]-N-(imidazo[1,2-a]pyrazin-6-ylmethyl)thiophene-2-carboxamide] — 2.32 log units higher, 9.20
- O=C(NCc1cn2ccnc2cn1)c1ccc(C2CCN(C(=O)c3ccc(F)cc3)CC2)s1 [Example 828, 5-[1-(4-fluorobenzoyl)piperidin-4-yl]-N-(imidazo[1,2-a]pyrazin-6-ylmethyl)thiophene-2-carboxamide] — 1.31 log units higher, 8.19
- O=C(NCc1cn2ccnc2cn1)c1ccc(C2CCN(C(=O)c3ccc(F)cc3F)CC2)s1 [Example 829, 5-[1-(2,4-difluorobenzoyl)piperidin-4-yl]-N-(imidazo[1,2-a]pyrazin-6-ylmethyl)thiophene-2-carboxamide] — 1.87 log units higher, 8.75
- O=C(NCc1cn2ccnc2cn1)c1ccc(C2CCN(C(=O)c3cc(F)ccc3F)CC2)s1 [Example 830, 5-[1-(2,5-difluorobenzoyl)piperidin-4-yl]-N-(imidazo[1,2-a]pyrazin-6-ylmethyl)thiophene-2-carboxamide] — 2.69 log units higher, 9.57
- O=C(NCc1ccc2ncnn2c1)c1ccc(C2CCN(C(=O)c3ccccc3F)CC2)s1 [Example 831, 5-[1-(2-fluorobenzoyl)piperidin-4-yl]-N-([1,2,4]triazolo[1,5-a]pyridin-6-ylmethyl)thiophene-2-carboxamide] — 2.17 log units higher, 9.05
- O=C(NCc1ccc2ncnn2c1)c1ccc(C2CCN(C(=O)c3cccc(F)c3)CC2)s1 [Example 832, 5-[1-(3-fluorobenzoyl)piperidin-4-yl]-N-([1,2,4]triazolo[1,5-a]pyridin-6-ylmethyl)thiophene-2-carboxamide] — 1.12 log units higher, 8.00
- O=C(NCc1ccc2ncnn2c1)c1ccc(C2CCN(C(=O)c3ccc(F)cc3)CC2)s1 [Example 833, 5-[1-(4-fluorobenzoyl)piperidin-4-yl]-N-([1,2,4]triazolo[1,5-a]pyridin-6-ylmethyl)thiophene-2-carboxamide] — 0.27 log units higher, 7.15
- O=C(NCc1ccc2ncnn2c1)c1ccc(C2CCN(C(=O)c3ccc(F)cc3F)CC2)s1 [Example 834, 5-[1-(2,4-difluorobenzoyl)piperidin-4-yl]-N-([1,2,4]triazolo[1,5-a]pyridin-6-ylmethyl)thiophene-2-carboxamide] — 1.02 log units higher, 7.90
- O=C(NCc1ccc2ncnn2c1)c1ccc(C2CCN(C(=O)c3cc(F)ccc3F)CC2)s1 [Example 835, 5-[1-(2,5-difluorobenzoyl)piperidin-4-yl]-N-([1,2,4]triazolo[1,5-a]pyridin-6-ylmethyl)thiophene-2-carboxamide] — 1.52 log units higher, 8.40
- O=C(NCc1ccc2ncnn2c1)c1ccc(C2CCN(C(=O)c3cc(F)cc(F)c3)CC2)s1 [Example 836, 5-[1-(3,5-difluorobenzoyl)piperidin-4-yl]-N-([1,2,4]triazolo[1,5-a]pyridin-6-ylmethyl)thiophene-2-carboxamide] — 0.29 log units higher, 7.17
- CC(C)C(=O)N1CCC(c2ccc(C(=O)NCc3cn4ccnc4cn3)s2)CC1 [Example 837, N-(imidazo[1,2-a]pyrazin-6-ylmethyl)-5-[1-(2-methylpropanoyl)piperidin-4-yl]thiophene-2-carboxamide] — 1.68 log units higher, 8.56
- CC(C)CC(=O)N1CCC(c2ccc(C(=O)NCc3cn4ccnc4cn3)s2)CC1 [Example 838, N-(imidazo[1,2-a]pyrazin-6-ylmethyl)-5-[1-(3-methylbutanoyl)piperidin-4-yl]thiophene-2-carboxamide] — 1.69 log units higher, 8.57
- CC1(C(=O)N2CCC(c3ccc(C(=O)NCc4cn5ccnc5cn4)s3)CC2)CC1 [Example 839, N-(imidazo[1,2-a]pyrazin-6-ylmethyl)-5-{1-[(1-methylcyclopropyl)carbonyl]piperidin-4-yl}thiophene-2-carboxamide] — 2.34 log units higher, 9.22
- O=C(NCc1cn2ccnc2cn1)c1ccc(C2CCN(C(=O)CCC(F)(F)F)CC2)s1 [Example 840, N-(imidazo[1,2-a]pyrazin-6-ylmethyl)-5-[1-(4,4,4-trifluorobutanoyl)piperidin-4-yl]thiophene-2-carboxamide] — 1.68 log units higher, 8.56
- O=C(NCc1cn2ccnc2cn1)c1ccc(C2CCN(C(=O)C3CCOCC3)CC2)s1 [Example 841, N-(imidazo[1,2-a]pyrazin-6-ylmethyl)-5-[1-(tetrahydro-2H-pyran-4-ylcarbonyl)piperidin-4-yl]thiophene-2-carboxamide] — 1.33 log units higher, 8.21
- CC(C)C(=O)N1CCC(c2ccc(C(=O)NCc3ccc4ncnn4c3)s2)CC1 [Example 842, 5-[1-(2-methylpropanoyl)piperidin-4-yl]-N-([1,2,4]triazolo[1,5-a]pyridin-6-ylmethyl)thiophene-2-carboxamide] — 0.27 log units higher, 7.15
- CC(C)CC(=O)N1CCC(c2ccc(C(=O)NCc3ccc4ncnn4c3)s2)CC1 [Example 843, 5-[1-(3-methylbutanoyl)piperidin-4-yl]-N-([1,2,4]triazolo[1,5-a]pyridin-6-ylmethyl)thiophene-2-carboxamide] — 0.88 log units higher, 7.76
- CC[C@H](C)C(=O)N1CCC(c2ccc(C(=O)NCc3ccc4ncnn4c3)s2)CC1 [Example 844, 5-{1-[(2S)-2-methylbutanoyl]piperidin-4-yl}-N-([1,2,4]triazolo[1,5-a]pyridin-6-ylmethyl)thiophene-2-carboxamide] — 0.95 log units higher, 7.83
- CC1(C(=O)N2CCC(c3ccc(C(=O)NCc4ccc5ncnn5c4)s3)CC2)CC1 [Example 845, 5-{1-[(1-methylcyclopropyl)carbonyl]piperidin-4-yl}-N-([1,2,4]triazolo[1,5-a]pyridin-6-ylmethyl)thiophene-2-carboxamide] — 1.53 log units higher, 8.41
- O=C(NCc1ccc2ncnn2c1)c1ccc(C2CCN(C(=O)CC(F)(F)F)CC2)s1 [Example 846, N-([1,2,4]triazolo[1,5-a]pyridin-6-ylmethyl)-5-[1-(3,3,3-trifluoropropanoyl)piperidin-4-yl]thiophene-2-carboxamide] — 0.25 log units higher, 7.13
- O=C(NCc1ccc2ncnn2c1)c1ccc(C2CCN(C(=O)CCC(F)(F)F)CC2)s1 [Example 847, N-([1,2,4]triazolo[1,5-a]pyridin-6-ylmethyl)-5-[1-(4,4,4-trifluorobutanoyl)piperidin-4-yl]thiophene-2-carboxamide] — within 0.2 log units, 7.03
- O=C(NCc1ccc2ncnn2c1)c1ccc(C2CCN(C(=O)C3CCC(F)(F)CC3)CC2)s1 [Example 848, 5-{1-[(4,4-difluorocyclohexyl)carbonyl]piperidin-4-yl}-N-([1,2,4]triazolo[1,5-a]pyridin-6-ylmethyl)thiophene-2-carboxamide] — 0.65 log units higher, 7.53
- O=C(NCc1ccc2ncnn2c1)c1ccc(C2CCN(C(=O)C3CCOCC3)CC2)s1 [Example 849, 5-[1-(tetrahydro-2H-pyran-4-ylcarbonyl)piperidin-4-yl]-N-([1,2,4]triazolo[1,5-a]pyridin-6-ylmethyl)thiophene-2-carboxamide] — 0.32 log units higher, 7.20
- CC(C)(O)C(=O)N1CCC(c2ccc(C(=O)NCc3ccc4ncnn4c3)s2)CC1 [Example 850, 5-[1-(2-hydroxy-2-methylpropanoyl)piperidin-4-yl]-N-([1,2,4]triazolo[1,5-a]pyridin-6-ylmethyl)thiophene-2-carboxamide] — 0.39 log units higher, 7.27
- N#Cc1ccccc1C(=O)N1CCC(c2ccc(C(=O)NCc3ccc4ncnn4c3)s2)CC1 [Example 852, 5-[1-(2-cyanobenzoyl)piperidin-4-yl]-N-([1,2,4]triazolo[1,5-a]pyridin-6-ylmethyl)thiophene-2-carboxamide] — 1.20 log units higher, 8.08
- O=C(NCc1ccc2ncnn2c1)c1ccc(C2CCN(C(=O)c3ccccn3)CC2)s1 [Example 853, 5-[1-(pyridin-2-ylcarbonyl)piperidin-4-yl]-N-([1,2,4]triazolo[1,5-a]pyridin-6-ylmethyl)thiophene-2-carboxamide] — 1.12 log units higher, 8.00
- O=C(Cc1ccc2nccn2c1)Nc1ccc(NC(=O)CC2CCCC2)cc1 [Example 854, 2-cyclopentyl-N-{4-[(imidazo[1,2-a]pyridin-6-ylacetyl)amino]phenyl}acetamide] — 2.50 log units higher, 9.38
- CC(C)(C)OC(=O)N1CCC(c2ccc(C(=O)NCc3ccc4nccn4n3)cc2)CC1 [Example 855, tert-butyl 4-{4-[(imidazo[1,2-b]pyridazin-6-ylmethyl)carbamoyl]phenyl}piperidine-1-carboxylate] — within 0.2 log units, 6.95
- O=C(CC1CCCC1)Nc1ccc(C(=O)NCc2ccc3nccn3n2)cc1 [Example 856, 4-[(cyclopentylacetyl)amino]-N-(imidazo[1,2-b]pyridazin-6-ylmethyl)benzamide] — 0.70 log units lower, 6.18
- O=C(NCc1ccn2ccnc2c1)c1ccc(-c2cc(C3CC3)nn2Cc2ccccc2)s1 [Example 857, 5-(1-benzyl-3-cyclopropyl-1H-pyrazol-5-yl)-N-(imidazo[1,2-a]pyridin-7-ylmethyl)thiophene-2-carboxamide] — 1.93 log units higher, 8.81
- CC(C)(C)Cn1cc(-c2ccc(C(=O)NCc3cn4ccnc4cn3)s2)cn1 [Example 858, 5-[1-(2,2-dimethylpropyl)-1H-pyrazol-4-yl]-N-(imidazo[1,2-a]pyrazin-6-ylmethyl)thiophene-2-carboxamide] — 2.35 log units higher, 9.23
- CC(C)S(=O)(=O)N1CCC(c2ccc(C(=O)NCc3ccc4ncnn4c3)s2)CC1 [Example 859, 5-[1-(propan-2-ylsulfonyl)piperidin-4-yl]-N-([1,2,4]triazolo[1,5-a]pyridin-6-ylmethyl)thiophene-2-carboxamide] — 1.10 log units higher, 7.98
